Laboratory results from US20260078103A1, “ISOQUINOLONES AS PI3K INHIBITORS” (OnKure, Inc., priority 2022, published 2026).
pEC50, pIC50: −log10 of the molar value. Like-named read-outs stand apart in the source and are kept apart here.

Columns and labels:
Assay type in all cases: cell-based
[1] = tested on: T47D cells expressing mutant PI3Ka (H1047R); test: In vitro cell proliferation, T47D cells (CellTiter-Glo); conditions: inhibition of proliferation, read-out: Avg T-47D EC50
Procedure, shortened: (§1)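 1,500 cells/well seeded onto pre-stamped 10-pt dilution plates; T47D in RPMI + 10% FBS + insulin 0.2 units/mL, SKBR3 in McCoys 5a + 10% FBS. 72 h, 37 °C, 5% CO2. CTG readout. 0% = 0.1% DMSO, 100% = 10 uM Alpelisib; sigmoidal fit gives EC50.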

[2] = tested on: SKBR3 cells express WT PI3Ka; test: In vitro cell proliferation, SKBR3 cells (CellTiter-Glo); conditions: inhibition of proliferation
Procedure, shortened: as §1

[3] = tested on: phosphorylation of AKT (pAKT) in T47D cells expressing mutant PI3Ka (H1047R); test: In vitro cell pAKT (Ser473) HTRF, T47D cells
Procedure, shortened: (§2)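 T47D cells (RPMI, 10% FBS, 0.2 units/mL insulin) or SKBR3 cells (McCoy's 5a, 10% FBS) were seeded onto 10-point compound dilutions and incubated 6 h at 37 °C. After lysis, pAKT was detected overnight by HTRF (Eu cryptate/d2). IC50 was fitted from % inhibition relative to 0.1% DMSO and 10 uM alpelisib controls.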

[4] = tested on: phosphorylation of AKT (pAKT) in SKBR3 cells express WT PI3Ka; test: In vitro cell pAKT (Ser473) HTRF, SKBR3 cells
Procedure, shortened: as §2

[5] = Homo sapiens, T47D, 6 h, cellular pAKT, T47D cells, mutant PI3Ka (H1047R), 6 hours, read-out: Avg T-47D IC50
[6] = Homo sapiens, SK-BR-3, 6 h, cellular pAKT
[7] = cellular pAKT, T47D cells, mutant PI3Ka (H1047R), 6 hours, read-out: Avg T-47D IC50

| SMILES | pEC50 ([1]; Homo sapiens, T47D, 72 h) | pEC50 ([2]; Homo sapiens, SK-BR-3, 72 h) | pIC50 [3, 5] | pIC50 [4, 6] | pEC50 ([1]; 72 hours) | pEC50 ([2]; 72 hours) | pIC50 [3, 7] | pIC50 ([4]; cellular pAKT, 6 hours) | pIC50 ([3]; Homo sapiens, T47D, 6 h, read-out: Avg T-47D IC50, cellular pAKT, T47D cells, mutant PI3Ka (H1047R), 6 hours) | pIC50 ([4]; Homo sapiens, SK-BR-3, cellular pAKT, 6 hours) |
| --- | --- | --- | --- | --- | --- | --- | --- | --- | --- | --- |
| Cc1cc([C@@H](C)Nc2ccccc2C(=O)O)c2cc(N3CCN(OC(C)C)CC3)n(C)c(=O)c2c1 [Example 250] | 6.30 to 9.00 | < 4.82 | 6.30 to 9.00 | < 4.82 | – | – | – | – | – | – |
| CCOc1ncc(-c2cc3c([C@@H](C)Nc4cccc(F)c4C(=O)O)cc(F)cc3c(=O)n2C)s1 [Example 363] | 6.30 to 9.00 | < 4.82 | 6.30 to 9.00 | < 4.82 | – | – | – | – | – | – |
| Cc1cc([C@@H](C)Nc2ccccc2C(=O)O)c2cc(N3CC4CC3CN4CC(F)(F)F)n(C)c(=O)c2c1 (single isomer, unassigned) [Example 224] | – | – | – | – | 6.30 to 9.00 | < 4.82 | 6.30 to 9.00 | < 4.82 | – | – |
| COc1cccc(C#Cc2cc3c(C(C)Nc4ccccc4C(=O)O)cc(C)cc3c(=O)n2C)c1 (single isomer, unassigned) [Example 125] | – | – | – | – | 4.82 to 5.70 | < 4.82 | < 4.82 | < 4.82 | – | – |
| CC(Nc1ccccc1C(=O)O)c1cc(F)cc2c(=O)n(C)c(N3CCN(CC(F)(F)F)CC3)c(F)c12 (single isomer, unassigned) [Example 572] | – | < 4.82 | – | – | 6.30 to 9.00 | – | 6.30 to 9.00 | 4.82 to 5.70 | – | – |
| Cc1cc([C@@H](C)Nc2ccccc2C(=O)O)c2cc(N3CCN(Cc4ccccn4)CC3)n(C)c(=O)c2c1 [Example 175] | 6.30 to 9.00 | 4.82 to 5.70 | 6.30 to 9.00 | < 4.82 | – | – | – | – | – | – |
| CCn1c(N2CCC(C)(C)CC2)cc2c(C(C)Nc3ccccc3C(=O)O)cc(C)cc2c1=O (stereo not shown) [Example 29, 2-((1-(3-(4,4-dimethylpiperidin-1-yl)-2-ethyl-7-methyl-1-oxo-1,2-dihydroisoquinolin-5-yl)ethyl)amino)benzoic acid] | 4.82 to 5.70 | < 4.82 | – | – | – | – | – | – | < 4.82 | < 4.82 |
| COC1(C)CCN(c2cc3c(C(C)Nc4ccccc4C(=O)O)cc(C)cc3c(=O)n2C)CC1 (single isomer, unassigned) [Example 154] | – | – | – | – | 4.82 to 5.70 | < 4.82 | < 4.82 | < 4.82 | – | – |
| Cc1cc([C@@H](C)Nc2ccccc2C(=O)O)c2cc(C3CC3(F)F)n(C)c(=O)c2c1 (single isomer, unassigned) [Example 385] | – | – | – | – | 6.30 to 9.00 | < 4.82 | 6.30 to 9.00 | < 4.82 | – | – |
| Cc1cc(C(C)Nc2ccccc2C(=O)O)c2cc(N3C[C@@H]4CN(CC(F)(F)F)C[C@H]4C3)n(C)c(=O)c2c1 (single isomer, unassigned) [Example 109] | – | – | – | – | 6.30 to 9.00 | 4.82 to 5.70 | 6.30 to 9.00 | < 4.82 | – | – |
| Cc1cc(C(C)Nc2ccccc2C(=O)O)c2cc(N3Cc4ccc(F)c(F)c4C3)n(C)c(=O)c2c1 (single isomer, unassigned) [Example 178] | – | – | – | – | 5.70 to 6.30 | < 4.82 | 6.30 to 9.00 | < 4.82 | – | – |
| CCc1ncccc1N1CCN(c2cc3c([C@@H](C)Nc4ccccc4C(=O)O)cc(C)cc3c(=O)n2C)CC1 [Example 257] | 6.30 to 9.00 | 4.82 to 5.70 | 6.30 to 9.00 | 4.82 to 5.70 | – | – | – | – | – | – |
| Cc1cc(C(C)Nc2ccccc2C(=O)O)c2cc(N3CCN(C)CC3)n(C)c(=O)c2c1 (single isomer, unassigned) [Example 13, 2-((1-(2,7-dimethyl-3-(4-methylpiperazin-1-yl)-1-oxo-1,2-dihydroisoquinolin-5-yl)ethyl)amino)benzoic acid] | – | – | – | – | 5.70 to 6.30 | < 4.82 | 5.70 to 6.30 | < 4.82 | – | – |
| C[C@@H](Nc1cccc(F)c1C(=O)O)c1cc(F)cc2c(=O)n(C)c(C34CC(C(F)(F)F)(C3)C4)cc12 [Example 39, (R)-2-fluoro-6-((1-(7-fluoro-2-methyl-1-oxo-3-(3-(trifluoromethyl)bicyclo[1.1.1]pentan-1-yl)-1,2-dihydroisoquinolin-5-yl)ethyl)amino)benzoic acid] | 6.30 to 9.00 | < 4.82 | 6.30 to 9.00 | < 4.82 | – | – | – | – | – | – |
| Cc1cc([C@@H](C)Nc2cccc(F)c2C(=O)O)c2cc(N3CCN(c4ccc(C)nc4)CC3)n(C)c(=O)c2c1 [Example 352] | 6.30 to 9.00 | 4.82 to 5.70 | 6.30 to 9.00 | 4.82 to 5.70 | – | – | – | – | – | – |
| Cc1cc([C@@H](C)Nc2ccccc2C(=O)O)c2cc(N3CCC4(CC3)CN(CC(F)(F)F)C4)n(C)c(=O)c2c1 [Example 219] | – | – | – | – | 6.30 to 9.00 | 4.82 to 5.70 | 6.30 to 9.00 | 4.82 to 5.70 | – | – |
| Cc1cc([C@@H](C)Nc2ccc(F)cc2C(=O)O)c2c(F)c(N3CCN(CC(F)(F)F)CC3)n(C)c(=O)c2c1 [Example 41, (R)-5-fluoro-2-((1-(4-fluoro-2,7-dimethyl-1-oxo-3-(4-(2,2,2-trifluoroethyl)piperazin-1-yl)-1,2-dihydroisoquinolin-5-yl)ethyl)amino)benzoic acid] | 6.30 to 9.00 | 4.82 to 5.70 | 6.30 to 9.00 | < 4.82 | – | – | – | – | – | – |

Second part, led by results:

| pEC50 ([1]; Homo sapiens, T47D, 72 h) | pEC50 ([2]; Homo sapiens, SK-BR-3, 72 h) | pIC50 [3, 5] | pIC50 [4, 6] | pEC50 ([1]; 72 hours) | pEC50 ([2]; 72 hours) | pIC50 [3, 7] | pIC50 ([4]; cellular pAKT, 6 hours) | SMILES | pIC50 ([3]; Homo sapiens, T47D, 6 h, read-out: Avg T-47D IC50, cellular pAKT, T47D cells, mutant PI3Ka (H1047R), 6 hours) | pIC50 ([4]; Homo sapiens, SK-BR-3, cellular pAKT, 6 hours) |
| --- | --- | --- | --- | --- | --- | --- | --- | --- | --- | --- |
| 6.30 to 9.00 | < 4.82 | 6.30 to 9.00 | < 4.82 | – | – | – | – | CCOc1ncc(-c2cc3c([C@@H](C)Nc4ccccc4C(=O)O)cc(F)cc3c(=O)n2C)s1 [Example 349] | – | – |
| – | – | – | – | 6.30 to 9.00 | 4.82 to 5.70 | 6.30 to 9.00 | < 4.82 | C[C@@H](Nc1ccccc1C(=O)O)c1cc(F)cc2c(=O)n(C)c(-c3cnc(-c4cc(F)c(F)cc4F)c(F)c3)cc12 [Example 548] | – | – |
| – | < 4.82 | 6.30 to 9.00 | < 4.82 | 6.30 to 9.00 | – | – | – | Cc1cc(C(C)Nc2ccccc2C(=O)O)c2cc(N3Cc4ccc(F)cc4C3)n(C)c(=O)c2c1 (single isomer, unassigned) [Example 49] | – | – |
| – | – | – | – | 6.30 to 9.00 | 4.82 to 5.70 | 6.30 to 9.00 | 4.82 to 5.70 | Cc1ncc(-c2ncc(-c3cc4c(C(C)Nc5ccccc5C(=O)O)cc(F)cc4c(=O)n3C)cc2F)cc1F (stereo not shown) [Example 459] | – | – |
| – | – | – | – | 5.70 to 6.30 | < 4.82 | 6.30 to 9.00 | < 4.82 | C[C@@H](Nc1ccccc1C(=O)O)c1cc(F)cc2c(=O)n(C)c(-c3ccc(OC4COC4)nc3)cc12 [Example 507] | – | – |
| 5.70 to 6.30 | < 4.82 | 6.30 to 9.00 | < 4.82 | – | – | – | – | C[C@@H](Nc1ccccc1C(=O)O)c1cc(F)cc2c(=O)n(C)c(-c3cc(F)c4nn(C)cc4c3)cc12 [Example 483] | – | – |
| 6.30 to 9.00 | < 4.82 | 6.30 to 9.00 | < 4.82 | – | – | – | – | Cc1cc([C@@H](C)Nc2ccccc2C(=O)O)c2cc(-c3cnc(C(C)C)nc3)n(C)c(=O)c2c1 [Example 276] | – | – |
| 6.30 to 9.00 | < 4.82 | 6.30 to 9.00 | < 4.82 | – | – | – | – | Cc1cc([C@@H](C)Nc2ccccc2C(=O)O)c2cc(-c3cnc(C(F)(F)F)nc3)n(C)c(=O)c2c1 [Example 288] | – | – |
| – | – | – | – | 6.30 to 9.00 | 4.82 to 5.70 | 6.30 to 9.00 | 4.82 to 5.70 | Cc1cc(C(C)Nc2ccccc2C(=O)O)c2cc(-c3ccc(N4CCOCC4)nc3)n(C)c(=O)c2c1 (single isomer, unassigned) [Example 487] | – | – |
| 6.30 to 9.00 | < 4.82 | 6.30 to 9.00 | < 4.82 | – | – | – | – | CCc1ncc(-c2cc3c([C@@H](C)Nc4ccccc4C(=O)O)cc(F)cc3c(=O)n2C)s1 [Example 524] | – | – |
| – | – | – | – | 6.30 to 9.00 | < 4.82 | 6.30 to 9.00 | < 4.82 | Cc1cc(C(C)Nc2cccc(F)c2C(=O)O)c2cc(-c3ccc(COC(F)(F)F)nc3)n(C)c(=O)c2c1 (stereo not shown) [Example 474] | – | – |
